The results in this text go back to patent publication US9447408B2, “Method of efficiently establishing induced pluripotent stem cells” (Kyoto University, priority 2010, dated 2016).

The subject of assay [1] is Human dermal fibroblasts (Tig109 line). The assay can be described thus: Human iPS cell colony formation, 4 genes introduced, various p38 inhibitors. Type of assay: cell-based. Particulars: for number of iPS cell colonies on day 40 after the infection: no colonies in either control group. How it is done: Human dermal fibroblasts (Tig109 line) were treated using a lentivirus (pLenti6/UbC-Slc7a1) according to the method described by Takahashi, K. et al. in Cell, 131: 861-872 (2007), to express the mouse ecotropic virus receptor Slc7a1 gene. These cells (2×10^5 cells/10 cm dish) were transfected with the four genes using a retrovirus according to the method described by Takahashi, K. et al. in Cell, 131: 861-872 (2007); each compound was added per the schedule shown below. • 1. Oct3/4, Sox2, Klf4, c-Myc, each derived from human, saline • 2. Oct3/4, Sox2, Klf4, c-Myc, each derived from human, DMSO (Day 5-35) • 3. Oct3/4, Sox2, Klf4, c-Myc, each derived from human, SB202190 10 μM (Day 5-20) • 4. Oct3/4, Sox2, Klf4, c-Myc, each derived from human, SB239063 10 μM (Day 5-20) • 5. Oct3/4, Sox2, Klf4, c-Myc, each derived from human, SB202190 10 μM (Day 21-35) • 6. Oct3/4, Sox2, Klf4, c-Myc, each derived from human, SB239063 10 μM (Day 21-35) • 7. Oct3/4, Sox2, Klf4, c-Myc, each derived from human, SB202190 10 μM (Day 5-35) • 8. Oct3/4, Sox2, Klf4, c-Myc, each derived from human, SB239063 10 μM (Day 5-35) On days 24, 32, and 40 after the infection, iPS cell colonies were counted. When the four factors (Oct3/4, Sox2, Klf4, C-Myc) were combined with SB239063 added on days 5 to 20 after the infection, the number of human iPS cell colonies increased on day 24 after the infection.

In assay [2] the test system is Mouse embryonic fibroblasts (MEFs). The assay can be described thus: iPS cell establishment from Nanog-GFP reporter MEFs, 4 genes (Oct3/4, Sox2, Klf4, c-Myc) introduced, with p38 inhibitors. It is filed as cell-based. As to conditions: for number of Nanog-GFP-positive colonies compared with physiological saline or DMSO: 10 μM inhibitor added on days 1 to 4 after the infection. How it is done: Mouse embryonic fibroblasts (MEFs) from a Nanog reporter mouse carrying Nanog-GFP—IRES-Puro^r [Okita K. et al, Nature 448, 313-317 (2007)] were transfected with four genes using a retrovirus to induce iPS cells.
Each retrovirus for reprogramming was prepared by transferring each of retroviral expression vectors (pMXs-Oct3/4, pMXs-Sox2, pMXs-Klf4, pMXs-cMyc:Cell, 126, 663-676 (2006)) to Plat-E cells (Morita, S. et al., Gene Ther. 7, 1063-1066) that had been seeded to a 6-well culture plate (Falcon) at 0.6×10^6 cells per well on the day before. The cells were cultured at 37° C. in the presence of 5% CO2 using DMEM/10% FCS [a culture broth prepared by adding 10% fetal calf serum to DMEM (Nacalai Tesque)]. To facilitate vector transfer, 4.5 μL of FuGene6 transfection reagent (Roche) was placed in 100 μL of Opti-MEM I Reduced-Serum Medium (Invitrogen), and the medium was allowed to stand at room temperature for 5 minutes. Subsequently, 1.5 μg of each expression vector was added, and the medium was allowed to further stand at room temperature for 15 minutes, after which they were added to the Plat-E culture broth. On day 2, the Plat-E supernatant was replaced with a fresh supply of the medium. On day 3, the culture supernatant was recovered and filtered through a 0.45 μm sterile filter (Whatman), and polybrene (Nacalai) was added at 4 μg/mL to yield a viral liquid.
Mouse embryonic fibroblasts (MEFs) were isolated from a fetal Nanog reporter mouse (13.5 days after fertilization). […] Not expressing the puromycin resistance gene as well, MEFs are susceptible to the antibiotic puromycin. As such, MEFs were seeded to a 6-well culture plate (Falcon), previously coated with 0.1% gelatin (Sigma), at 1.0×10^5 cells per well. DMEM/10% FCS served as the culture broth at 37° C. in the presence of 5% CO2. The following day, each retrovirus liquid was added, and this was followed by overnight infection to introduce the genes.
On day 1 after the viral infection, the medium for the MEFs was removed, and the cells were washed by the addition of 1 mL of PBS. After removing the PBS, 0.25% Trypsin/1 mM EDTA (Invitrogen) was added, and a reaction was carried out at 37° C. for about 5 minutes. After the cells floated up, the cells were suspended by the addition of an ES cell culture medium and 2500 cells were seeded to a 100 mm dish having mitomycin C-treated STO feeder cells seeded thereto previously. Cultivation was continued while replacing the ES cell culture medium with a fresh supply of the same medium every two days until a visible colony emerged.
To determine the effects of p38 inhibitors on the establishment of iPS cells by the introduction of the four mouse genes, cultivation was continued with the addition of 10 μM of the p38 inhibitor 5B202190, SB239063, or SB203580 (Calbiochem Company) to the medium per the schedule shown below. All these inhibitors were used in solution in DMSO. • 1. Oct3/4, Sox2, Klf4, c-Myc, each derived from mouse, saline • 2. Oct3/4, Sox2, Klf4, c-Myc, each derived from mouse, DMSO • 3. Oct3/4, Sox2, Klf4, c-Myc, each derived from mouse, SB202190 10 μM Day 1-4) • 4. Oct3/4, Sox2, Klf4, c-Myc, each derived from mouse, SB202190 10 μM (Day 1-8) • 5. Oct3/4, Sox2, Klf4, c-Myc, each derived from mouse, SB202190 10 μM (Day 9-16) • 6. Oct3/4, Sox2, Klf4, c-Myc, each derived from mouse, SB202190 10 μM (Day 1-16) • 7. Oct3/4, Sox2, Klf4, c-Myc, each derived from mouse, SB239063 10 μM (Day 1-4) • 8. Oct3/4, Sox2, Klf4, c-Myc, each derived from mouse, SB239063 10 μM (Day 1-8) • 9. Oct3/4, Sox2, Klf4, c-Myc, each derived from mouse, SB239063 10 μM (Day 9-16) • 10. Oct3/4, Sox2, Klf4, c-Myc, each derived from mouse, SB239063 10 μM (Day 1-16) • 11. Oct3/4, Sox2, Klf4, c-Myc, each derived from mouse, SB203580 10 μM (Day 1-4) • 12. Oct3/4, Sox2, Klf4, c-Myc, each derived from mouse, SB203580 10 μM (Day 1-8) • 13. Oct3/4, Sox2, Klf4, c-Myc, each derived from mouse, SB203580 10 μM (Day 9-16) • 14. […]

As for `Oc1ccc(-c2nc(-c3ccc(F)cc3)c(-c3ccncc3)[nH]2)cc1` [SB202190, 4-(4-fluorophenyl)-2-(4-hydroxyphenyl)-5-(4-pyridyl)imidazole], in assay [1] (10 μM inhibitor), the “number of iPS cell colonies on day 32 after the infection” value is on record as “capable of increasing the number of iPS cell colonies” and the “number of iPS cell colonies on day 40 after the infection” value was “increased remarkably”. Further, the “effect on iPS cell colony number on day 32, inhibitor added day 21 to day 35” value in assay [1] (10 μM, Day 21-35) is listed as “remarkable effects”. In addition, the “number of Nanog-GFP-positive colonies compared with physiological saline or DMSO” value in assay [2] is on record as “increased”.

For the compound `COc1nccc(-c2c(-c3ccc(F)cc3)ncn2[C@H]2CC[C@H](O)CC2)n1` [SB239063, trans-1-(4-Hydroxycyclohexyl)-4-(4-fluorophenyl)-5-(2-methoxypyrimidin-4-yl)imidazole], in assay [1] (10 μM added on days 5 to 20), the “number of human iPS cell colonies on day 24 after the infection” value was “increased”. The “number of iPS cell colonies on day 40 after the infection” value in assay [1] (10 μM inhibitor) is “two”. Also, the “number of Nanog-GFP-positive colonies compared with physiological saline or DMSO” value in assay [2] is “increased”. In assay [2] (10 μM inhibitor on days 1 to 4, counted day 28), the “effect on colony count when measured on day 28 after the infection” value is reported as “remarkable”. Moreover, the “colony count compared with cells treated with physiological saline or DMSO” value in assay [2] (10 μM inhibitor on days 1 to 4 after the infection, FIG. 1) is “tended to increase”.
